Holding throughout (experiment): DSF thermal shift
Type in all cases: binding
What all share (conditions): 10 µM inhibitor; read-out: Tm shift

One assay addresses T1, CLK4 (Homo sapiens, UniProt Q9HAZ1).
T1 construct: purchased Nanosyn (enzymatic panel); SGC in-house recombinant human kinases (DSF panel); Invitrogen (ALK1-6)
As for the experimental part:
(§1) Thermal melting experiments were performed using a Real Time PCR machine Mx3005p (Stratagene) with a protein concentration of 1–2 µM and 10 µM inhibitor as described previously, [25]. […] Recombinant human kinases for DSF screening were prepared by SGC using published methods, [36].

Another assay concerns the target T2, AMPKα1 (Homo sapiens, UniProt Q13131).
T2 construct: purchased Nanosyn (enzymatic panel); SGC in-house recombinant human kinases (DSF panel); Invitrogen (ALK1-6)
As for the experimental part: as §1

Another assay deals with T3, CLK3 (Homo sapiens, UniProt P49761).
T3 construct: purchased Nanosyn (enzymatic panel); SGC in-house recombinant human kinases (DSF panel); Invitrogen (ALK1-6)
The protocol: as §1

A further assay deals with T4, MEK2 (Homo sapiens, UniProt P36507).
T4 construct: purchased Nanosyn (enzymatic panel); SGC in-house recombinant human kinases (DSF panel); Invitrogen (ALK1-6)
T4 sequence (P36507 whole entry): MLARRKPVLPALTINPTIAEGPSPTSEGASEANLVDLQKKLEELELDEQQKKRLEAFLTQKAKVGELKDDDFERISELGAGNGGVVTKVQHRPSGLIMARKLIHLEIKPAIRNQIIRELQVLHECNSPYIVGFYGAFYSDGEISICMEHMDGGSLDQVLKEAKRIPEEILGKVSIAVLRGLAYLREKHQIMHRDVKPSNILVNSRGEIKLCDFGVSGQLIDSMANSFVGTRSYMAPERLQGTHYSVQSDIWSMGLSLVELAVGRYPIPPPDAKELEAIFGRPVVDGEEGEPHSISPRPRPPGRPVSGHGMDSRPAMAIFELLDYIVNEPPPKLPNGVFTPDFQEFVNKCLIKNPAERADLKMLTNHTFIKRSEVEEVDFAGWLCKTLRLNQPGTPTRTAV
The protocol:
as §1

The target of another assay is T5, VRK2 (Homo sapiens, UniProt Q86Y07).
T5 construct: purchased Nanosyn (enzymatic panel); SGC in-house recombinant human kinases (DSF panel); Invitrogen (ALK1-6)
T5 sequence (Q86Y07 whole entry): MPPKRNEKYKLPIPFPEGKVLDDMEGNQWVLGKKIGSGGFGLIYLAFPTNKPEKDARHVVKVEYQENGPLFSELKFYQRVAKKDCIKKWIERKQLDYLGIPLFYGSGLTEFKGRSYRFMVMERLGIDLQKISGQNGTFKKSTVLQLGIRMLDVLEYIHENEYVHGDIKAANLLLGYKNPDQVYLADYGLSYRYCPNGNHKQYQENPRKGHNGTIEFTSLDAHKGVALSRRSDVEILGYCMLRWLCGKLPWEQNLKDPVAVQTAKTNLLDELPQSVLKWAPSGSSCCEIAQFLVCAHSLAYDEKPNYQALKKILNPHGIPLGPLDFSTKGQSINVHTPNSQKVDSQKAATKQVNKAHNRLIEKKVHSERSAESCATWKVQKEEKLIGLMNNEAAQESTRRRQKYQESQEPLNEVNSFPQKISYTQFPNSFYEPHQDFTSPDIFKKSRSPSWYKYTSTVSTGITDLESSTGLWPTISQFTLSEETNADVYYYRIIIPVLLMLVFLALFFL
As for the experimental part: as §1

The target of a further assay is T6, PKN1 (Homo sapiens, UniProt Q16512).
T6 construct: purchased Nanosyn (enzymatic panel); SGC in-house recombinant human kinases (DSF panel); Invitrogen (ALK1-6)
As for the experimental part: as §1

The target of a further assay is T7, CDK2 (Homo sapiens, UniProt P24941).
T7 construct: purchased Nanosyn (enzymatic panel); SGC in-house recombinant human kinases (DSF panel); Invitrogen (ALK1-6)
As for the experimental part:
as §1

Another assay concerns the target T8, CK1γ1 (Homo sapiens, UniProt Q9HCP0).
T8 construct: purchased Nanosyn (enzymatic panel); SGC in-house recombinant human kinases (DSF panel); Invitrogen (ALK1-6)
As for the experimental part:
as §1

In the next assay the target is T9, CLK2 (Homo sapiens, UniProt P49760).
T9 construct: purchased Nanosyn (enzymatic panel); SGC in-house recombinant human kinases (DSF panel); Invitrogen (ALK1-6)
T9 sequence (P49760 whole entry): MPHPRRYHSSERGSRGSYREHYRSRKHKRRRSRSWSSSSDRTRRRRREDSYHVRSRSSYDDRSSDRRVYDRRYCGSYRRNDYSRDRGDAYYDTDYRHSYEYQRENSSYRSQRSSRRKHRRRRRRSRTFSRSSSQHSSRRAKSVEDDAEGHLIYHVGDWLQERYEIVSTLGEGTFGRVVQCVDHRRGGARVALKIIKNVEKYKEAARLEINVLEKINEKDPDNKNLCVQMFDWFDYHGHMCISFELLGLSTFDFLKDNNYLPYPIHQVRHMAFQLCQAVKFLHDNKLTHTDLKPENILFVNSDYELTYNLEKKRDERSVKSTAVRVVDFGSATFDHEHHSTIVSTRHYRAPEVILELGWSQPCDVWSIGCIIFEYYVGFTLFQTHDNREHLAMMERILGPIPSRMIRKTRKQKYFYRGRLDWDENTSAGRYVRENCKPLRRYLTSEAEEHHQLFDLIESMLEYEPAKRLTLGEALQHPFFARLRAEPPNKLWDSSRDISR
The protocol:
as §1

Another assay deals with T10, JNK1 (Homo sapiens, UniProt P45983).
T10 construct: purchased Nanosyn (enzymatic panel); SGC in-house recombinant human kinases (DSF panel); Invitrogen (ALK1-6)
T10 sequence (P45983 whole entry): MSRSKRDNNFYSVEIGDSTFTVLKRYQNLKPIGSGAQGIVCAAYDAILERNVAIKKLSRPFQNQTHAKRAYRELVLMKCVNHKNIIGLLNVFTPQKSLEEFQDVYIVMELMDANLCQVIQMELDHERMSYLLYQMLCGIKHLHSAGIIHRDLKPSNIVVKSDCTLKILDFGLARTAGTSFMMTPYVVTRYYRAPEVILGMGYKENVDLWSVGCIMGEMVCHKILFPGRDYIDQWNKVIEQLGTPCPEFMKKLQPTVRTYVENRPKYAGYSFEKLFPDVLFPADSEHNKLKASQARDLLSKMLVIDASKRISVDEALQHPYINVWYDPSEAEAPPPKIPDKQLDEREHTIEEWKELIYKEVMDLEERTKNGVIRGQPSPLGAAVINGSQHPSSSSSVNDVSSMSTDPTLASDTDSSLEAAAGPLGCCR
As for the experimental part: as §1

A further assay has as its target T11, PTK7 (Homo sapiens, UniProt Q13308).
T11 construct: purchased Nanosyn (enzymatic panel); SGC in-house recombinant human kinases (DSF panel); Invitrogen (ALK1-6)
T11 sequence (Q13308 31-1070): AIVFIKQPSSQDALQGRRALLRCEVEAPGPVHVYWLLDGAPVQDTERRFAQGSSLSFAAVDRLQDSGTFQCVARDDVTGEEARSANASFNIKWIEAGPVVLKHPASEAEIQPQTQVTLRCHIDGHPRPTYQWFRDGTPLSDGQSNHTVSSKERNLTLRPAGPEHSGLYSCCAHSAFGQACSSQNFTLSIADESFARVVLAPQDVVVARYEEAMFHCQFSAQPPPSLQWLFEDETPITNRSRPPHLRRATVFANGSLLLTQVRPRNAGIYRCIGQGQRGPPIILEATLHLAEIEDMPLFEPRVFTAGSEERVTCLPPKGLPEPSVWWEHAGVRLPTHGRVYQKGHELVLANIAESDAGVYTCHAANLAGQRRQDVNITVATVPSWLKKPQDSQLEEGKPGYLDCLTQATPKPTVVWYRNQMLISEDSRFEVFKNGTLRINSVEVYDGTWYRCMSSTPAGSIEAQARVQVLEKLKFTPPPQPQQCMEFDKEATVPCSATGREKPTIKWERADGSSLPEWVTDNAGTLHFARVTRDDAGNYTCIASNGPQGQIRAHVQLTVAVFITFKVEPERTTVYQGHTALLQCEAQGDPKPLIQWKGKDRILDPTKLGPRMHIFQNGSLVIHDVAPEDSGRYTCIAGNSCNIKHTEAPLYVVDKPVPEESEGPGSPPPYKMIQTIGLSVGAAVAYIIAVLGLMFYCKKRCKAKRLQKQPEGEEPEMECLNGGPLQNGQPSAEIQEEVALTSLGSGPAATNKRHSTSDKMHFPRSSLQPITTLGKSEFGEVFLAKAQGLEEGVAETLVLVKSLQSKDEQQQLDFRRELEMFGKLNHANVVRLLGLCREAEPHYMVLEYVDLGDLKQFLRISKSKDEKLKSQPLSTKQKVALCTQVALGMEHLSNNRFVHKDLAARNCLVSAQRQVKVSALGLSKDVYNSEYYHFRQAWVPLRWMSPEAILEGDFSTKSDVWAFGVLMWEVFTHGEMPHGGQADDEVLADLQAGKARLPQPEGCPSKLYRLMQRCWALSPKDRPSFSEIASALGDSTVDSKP
As for the experimental part: as §1

The target of another assay is T12, RSK1 (Homo sapiens, UniProt Q15418).
T12 construct: purchased Nanosyn (enzymatic panel); SGC in-house recombinant human kinases (DSF panel); Invitrogen (ALK1-6)
T12 sequence (Q15418 whole entry): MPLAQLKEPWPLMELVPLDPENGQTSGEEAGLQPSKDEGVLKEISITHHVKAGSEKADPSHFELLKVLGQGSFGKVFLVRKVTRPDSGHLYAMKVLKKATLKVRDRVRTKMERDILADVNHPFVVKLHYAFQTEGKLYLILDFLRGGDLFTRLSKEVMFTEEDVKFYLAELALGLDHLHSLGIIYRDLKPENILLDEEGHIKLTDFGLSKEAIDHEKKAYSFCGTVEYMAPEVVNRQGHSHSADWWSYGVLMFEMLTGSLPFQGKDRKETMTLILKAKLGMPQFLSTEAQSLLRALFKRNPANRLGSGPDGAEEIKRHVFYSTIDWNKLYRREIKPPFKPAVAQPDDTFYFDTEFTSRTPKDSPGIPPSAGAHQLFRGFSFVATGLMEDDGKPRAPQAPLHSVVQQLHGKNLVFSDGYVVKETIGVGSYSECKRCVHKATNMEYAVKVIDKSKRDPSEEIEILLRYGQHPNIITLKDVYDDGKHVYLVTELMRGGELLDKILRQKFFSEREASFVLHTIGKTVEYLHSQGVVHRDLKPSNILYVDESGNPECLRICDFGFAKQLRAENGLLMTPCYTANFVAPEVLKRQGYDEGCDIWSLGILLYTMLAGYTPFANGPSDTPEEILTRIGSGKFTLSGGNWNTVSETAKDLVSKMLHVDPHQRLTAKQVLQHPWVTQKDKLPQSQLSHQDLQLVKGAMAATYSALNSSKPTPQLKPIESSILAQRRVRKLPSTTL
As for the experimental part: as §1

The next assay concerns the target T13, ActRIIA (Homo sapiens, UniProt P27037).
T13 construct: purchased Nanosyn (enzymatic panel); SGC in-house recombinant human kinases (DSF panel); Invitrogen (ALK1-6)
The protocol:
as §1

Another assay addresses T14, FES (Homo sapiens, UniProt P07332).
T14 construct: purchased Nanosyn (enzymatic panel); SGC in-house recombinant human kinases (DSF panel); Invitrogen (ALK1-6)
As for the experimental part: as §1

A further assay addresses T15, PIM3 (Homo sapiens, UniProt Q86V86).
T15 construct: purchased Nanosyn (enzymatic panel); SGC in-house recombinant human kinases (DSF panel); Invitrogen (ALK1-6)
As for the experimental part:
as §1

T1 sequence (Q9HAZ1 whole entry): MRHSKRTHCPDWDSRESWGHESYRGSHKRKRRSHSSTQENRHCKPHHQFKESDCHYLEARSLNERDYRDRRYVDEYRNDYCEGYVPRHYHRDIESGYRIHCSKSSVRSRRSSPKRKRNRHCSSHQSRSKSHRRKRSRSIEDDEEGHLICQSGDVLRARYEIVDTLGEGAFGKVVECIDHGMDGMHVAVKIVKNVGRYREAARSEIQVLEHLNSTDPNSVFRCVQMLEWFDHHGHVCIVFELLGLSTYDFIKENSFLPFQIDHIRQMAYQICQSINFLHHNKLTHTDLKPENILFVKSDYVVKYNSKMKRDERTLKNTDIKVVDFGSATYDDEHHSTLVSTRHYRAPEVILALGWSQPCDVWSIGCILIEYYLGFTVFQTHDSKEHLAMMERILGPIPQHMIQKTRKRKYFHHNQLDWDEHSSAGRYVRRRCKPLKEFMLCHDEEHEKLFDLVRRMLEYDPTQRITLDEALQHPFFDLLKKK
T2 sequence (Q13131 whole entry): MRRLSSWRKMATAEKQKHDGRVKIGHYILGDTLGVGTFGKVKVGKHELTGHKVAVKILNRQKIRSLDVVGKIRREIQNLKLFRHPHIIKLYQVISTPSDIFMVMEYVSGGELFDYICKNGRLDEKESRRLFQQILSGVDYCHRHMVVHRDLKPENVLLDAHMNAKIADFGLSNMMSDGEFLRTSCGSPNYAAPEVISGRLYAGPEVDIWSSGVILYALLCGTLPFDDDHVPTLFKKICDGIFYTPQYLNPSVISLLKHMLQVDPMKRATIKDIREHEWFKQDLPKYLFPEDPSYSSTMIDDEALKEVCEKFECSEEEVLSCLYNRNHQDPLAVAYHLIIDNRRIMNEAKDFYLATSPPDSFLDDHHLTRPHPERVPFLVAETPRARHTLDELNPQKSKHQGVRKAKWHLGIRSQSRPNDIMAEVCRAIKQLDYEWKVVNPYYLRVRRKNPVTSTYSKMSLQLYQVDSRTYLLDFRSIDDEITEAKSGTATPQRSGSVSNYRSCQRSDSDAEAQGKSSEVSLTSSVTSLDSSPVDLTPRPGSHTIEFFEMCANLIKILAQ
T2 sequence (Q9Y478 whole entry partner): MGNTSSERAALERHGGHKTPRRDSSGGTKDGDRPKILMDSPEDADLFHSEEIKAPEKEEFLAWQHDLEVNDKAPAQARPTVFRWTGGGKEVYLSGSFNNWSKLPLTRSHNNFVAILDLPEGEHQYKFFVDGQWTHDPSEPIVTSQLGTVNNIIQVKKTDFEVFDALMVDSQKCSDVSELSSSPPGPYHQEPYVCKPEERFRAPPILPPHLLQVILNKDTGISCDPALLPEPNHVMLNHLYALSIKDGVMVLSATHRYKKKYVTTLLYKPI
T2 sequence (P54619 whole entry partner): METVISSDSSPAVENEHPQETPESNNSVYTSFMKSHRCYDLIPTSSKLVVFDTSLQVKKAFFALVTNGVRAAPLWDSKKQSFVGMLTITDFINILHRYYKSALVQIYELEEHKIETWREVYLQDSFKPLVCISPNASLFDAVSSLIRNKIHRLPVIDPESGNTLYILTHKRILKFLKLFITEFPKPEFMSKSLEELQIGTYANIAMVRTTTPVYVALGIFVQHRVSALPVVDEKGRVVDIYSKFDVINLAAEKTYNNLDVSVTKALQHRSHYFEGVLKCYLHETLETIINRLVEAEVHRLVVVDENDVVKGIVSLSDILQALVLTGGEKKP
T8 sequence (Q9HCP0 whole entry): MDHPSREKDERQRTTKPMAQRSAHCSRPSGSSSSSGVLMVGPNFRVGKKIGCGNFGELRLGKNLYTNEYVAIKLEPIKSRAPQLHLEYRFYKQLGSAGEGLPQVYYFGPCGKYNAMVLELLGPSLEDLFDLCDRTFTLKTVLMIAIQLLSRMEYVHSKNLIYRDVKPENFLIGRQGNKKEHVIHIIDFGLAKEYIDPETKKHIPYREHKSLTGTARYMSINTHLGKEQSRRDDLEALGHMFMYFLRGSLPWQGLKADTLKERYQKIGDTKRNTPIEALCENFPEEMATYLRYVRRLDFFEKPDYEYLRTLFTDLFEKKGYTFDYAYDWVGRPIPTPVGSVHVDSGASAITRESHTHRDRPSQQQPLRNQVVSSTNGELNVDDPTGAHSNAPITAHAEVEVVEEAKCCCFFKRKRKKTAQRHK

In the case of `c1cc(-c2cnn3cc(-c4ccc(OCCN5CCCCC5)cc4)cnc23)ccn1` [Dorsomorphin], the ΔTm at 10 µM at CLK4 is 8.7 °C; at AMPKα1 it was 3.9 °C; on CLK3, 3.7 °C; on MEK2, -0.1 °C; at VRK2, 0.2 °C; at PKN1 it was 2.3 °C. The ΔTm at 10 µM was 2.5 °C on CDK2; 0.4 °C on CK1γ1; 5 °C on CLK2; 0 °C on JNK1; -1.2 °C on PTK7; 2.8 °C on RSK1. Further, the results for the ΔTm at 10 µM on ActRIIA, on FES and at PIM3 were 6.1 °C, 0.5 °C and 0.6 °C, respectively.

`COc1cc(-c2cc(-c3cccc(O)c3)cnc2N)cc(OC)c1OC` [K02288, 3-[6-amino-5-(3,4,5-trimethoxy-phenyl)-pyridin-3-yl]-phenol]: the ΔTm at 10 µM on CLK4 was 0.3 °C; on AMPKα1, 0.2 °C; on CLK3, 0 °C; at MEK2, 2.4 °C; on VRK2, 0.6 °C; at PKN1, 0.5 °C. For the same molecule, the ΔTm at 10 µM at CDK2 was 0.1 °C; on CK1γ1 it was 0.7 °C; on CLK2, 0 °C; on JNK1, 0.2 °C; at PTK7, -1.3 °C; on RSK1, 1.1 °C. For the same molecule, the results for the ΔTm at 10 µM at ActRIIA, on FES and at PIM3 were 8.3 °C, 0.4 °C and -0.2 °C, respectively.

Regarding `c1ccc2c(-c3cnn4cc(-c5ccc(N6CCNCC6)cc5)cnc34)ccnc2c1` [LDN-193189], the ΔTm at 10 µM was 5.3 °C at CLK4; 4.3 °C on AMPKα1; 0.7 °C at CLK3; 2.1 °C on MEK2; -0.2 °C at VRK2; 2.3 °C at PKN1. Moreover, the ΔTm at 10 µM on CDK2 is 0.7 °C; on CK1γ1, 0.3 °C; on CLK2 it was 3.3 °C; at JNK1 it was 0.5 °C; at PTK7, -0.3 °C; on RSK1 it was 3.3 °C. Besides, the ΔTm at 10 µM on ActRIIA is 8.6 °C; on FES it was 0.4 °C; at PIM3 it was -0.2 °C.

For the origin of these results see paper PMC3639963, “A New Class of Small Molecule Inhibitor of BMP Signaling” (PLoS ONE, 2013).
